In patent US20240390295A1, “METHODS FOR TREATING DEPRESSION” (JANSSEN PHARMACEUTICA NV, priority 2020, published 2024):

Test system: adult patients (aged 18-64 years) with TRD
Test: Clinician-reported adverse events: incidence and recurrence by Week 1/Week 4 frequency, pooled studies 1 and 2 (ESK + OAD)
Assay type: in vivo, human
Text: Data were pooled from adult patients (aged 18-64 years) with TRD. Patients had recurrent or single-episode (>2 years) MDD (DSM-5), a Clinician-Rated Inventory of Depressive Symptomatology score of >3 and a total Montgomery-Åsberg Depression Rating Scale (MADRS) score of >2. At screening, depressive symptoms had been non-responsive to adequate trials of ≥1 and ≤5 commercially available OAD in the current depressive episode. Non response was further confirmed by a prospective trial of a different OAD lasting ≥4 weeks and during the screening phase.
In brief, study 1 was a double-blind, placebo-controlled relapse prevention trial comparing the efficacy of ESK versus placebo nasal spray, both in conjunction with a Food and Drug Administration (FDA)-approved OAD, in delaying relapse of depressive symptoms in patients with TRD who were either in stable remission or stable response after four months' treatment with ESK in conjunction with a FDA-approved OAD. Study 2 was an open-label, multicenter study that assessed the long-term safety and efficacy of ESK in conjunction with an FDA-approved OAD in patients with TRD.
The analysis was limited to the two doses of ESK (56 mg and 84 mg) approved for use by the FDA for patients with TRD. Patients received ESK (56 or 84 mg) in conjunction with an OAD twice weekly during the induction phase (Weeks 1-4); once weekly during Weeks 5-8 of the optimization phase: either once weekly or every other week during the remainder of the 12-week optimization phase and the maintenance phase (individualized according to the severity of depressive symptoms [MADRS total score≤/>12] and tolerability).
Patients were monitored for >90 minutes after ESK administration at each treatment session, after which time they could leave the clinical site at the clinician's discretion. AEs were monitored and reported, and safety assessments, including clinical laboratory tests and physical examinations, were conducted throughout the study. Clinician-reported AEs were categorized as mild, moderate, or severe based on clinical judgement (Table 1).
This analysis included any treatment sessions in which patients received ESK (either open-label or blinded). The occurrence and severity of AEs were assessed within the following timeframes: Month 1 (Week 1 and Weeks 2-4), Month 2 (Weeks 5-8), Months 3-6 and Months 6-12. Severity of clinician-reported AEs were scored as 0 (no AE), 1 (mild), 2 (moderate), and 3 (severe). To examine AEs in individual patients over time, only patients who received at least one ESK dose in the following period were included in the analyses of each respective period. Thus, patient data were retained in (i) Week 1 if the patient received ≥1 ESK dose in Weeks 2-4, (ii) Weeks 2-4 if the patient received ≥1 ESK dose in Weeks 5-8, (iii) Weeks 5-8 if the patient received ≥1 ESK dose in Months 3-6, and (iv) Months 3-6 if the patient received ≥1 ESK dose in Months 6-12.
The five most commonly reported treatment-emergent events occurring with ESK plus OAD therapy (dissociation, dizziness, nausea, sedation, and vertigo) were evaluated, each of which has an incidence ≥5% and at least a 2-fold greater incidence than with placebo plus an OAD. 14 Increases in BP were also examined.
Week 1 and Week 4 were set a priori as index weeks because they are the beginning and end of the induction period. Frequencies and maximum-reported severities of AEs reported during these index weeks served as stratifying variables by which to examine recurrence and severities of AE recurrences in future timeframes.

[1] = Months 3-6, overall rate for timeframe
[2] = Months 6-12, AE twice in Week 1
[3] = Months 6-12, overall rate for timeframe
[4] = Week 1, overall rate for timeframe

In the case of `CN[C@]1(c2ccccc2Cl)CCCCC1=O` [esketamine, (S)-2-(2-chlorophenyl)-2-(methylamino)cyclohexanone], the “vomiting during later periods” value (8 participants who had vomiting twice during week 1) is reported as “none experienced vomiting during later periods”, the “participants experiencing an AE after any subsequent treatment session” value (AE not reported in week 1) is reported as < 10% and the Clinician-reported dissociation (Months 3-6, AE once in Week 1) is reported as 26.2%. The “Clinician-reported increased blood pressure” value (Months 3-6, AE once in Week 1) was 36.4%, the Clinician-reported sedation (Months 3-6, AE once in Week 1) was 0% and the Dizziness (Months 3-6, AE once in Week 1) was 31.2%. For the same compound, the Nausea (Months 3-6, AE once in Week 1) was 20.8%, the Vertigo (Months 3-6, AE once in Week 1) was 28.6% and the Clinician-reported dissociation (Months 3-6, AE twice in Week 1) was 61.1%. For the same compound, the “Clinician-reported increased blood pressure” value (Months 3-6, AE twice in Week 1) was 40.0%, the Clinician-reported sedation (Months 3-6, AE twice in Week 1) was 36.4% and the Dizziness (Months 3-6, AE twice in Week 1) was 53.0%. It also gave a Nausea (Months 3-6, AE twice in Week 1) of 33.3%, a Vertigo (Months 3-6, AE twice in Week 1) of 59.5% and a Clinician-reported dissociation (Months 3-6, No AE in Week 1) of 7.6%. The “Clinician-reported increased blood pressure” value (Months 3-6, No AE in Week 1) was 3.0%, the Clinician-reported sedation (Months 3-6, No AE in Week 1) was 3.0% and the Dizziness (Months 3-6, No AE in Week 1) was 7.5%. For the same compound, the Nausea (Months 3-6, No AE in Week 1) was 4.5%, the Vertigo (Months 3-6, No AE in Week 1) was 3.4% and the Anxiety (Months 3-6, None in Week 1) was 1.2%. For the same compound, the “Feeling Drunk” value (Months 3-6, None in Week 1) was 0.2%, the Hypoesthesia (Months 3-6, None in Week 1) was 2.5% and the Lethargy (Months 3-6, None in Week 1) was 0.2%. For the same compound, the Vomiting (Months 3-6, None in Week 1) was 1.9%, the Anxiety (Months 3-6, Once in Week 1) was 10.0% and the “Feeling Drunk” value (Months 3-6, Once in Week 1) was 16.7%. The Hypoesthesia (Months 3-6, Once in Week 1) was 20.7%, the Lethargy (Months 3-6, Once in Week 1) was 40.0% and the Vomiting (Months 3-6, Once in Week 1) was 21.1%. For the same compound, the Anxiety (Months 3-6, Overall) was 1.5%, the “Feeling Drunk” value (Months 3-6, Overall) was 1.5% and the Hypoesthesia (Months 3-6, Overall) was 5.2%. For the same compound, the Lethargy (Months 3-6, Overall) was 0.5%, the Vomiting (Months 3-6, Overall) was 2.5% and the Anxiety (Months 3-6, Twice in Week 1) was 50.0%. For the same compound, the “Feeling Drunk” value (Months 3-6, Twice in Week 1) was 100.0%, the Hypoesthesia (Months 3-6, Twice in Week 1) was 73.3% and the Lethargy (Months 3-6, Twice in Week 1) was 0%. For the same compound, the Vomiting (Months 3-6, Twice in Week 1) was 0%, the Clinician-reported dissociation [1] was 14.4% and the “Clinician-reported increased blood pressure” value [1] was 4.2%. For the same compound, the Clinician-reported sedation [1] was 3.5%, the Dizziness [1] was 15.6% and the Nausea [1] was 7.2%. For the same compound, the Vertigo [1] was 8.2%, the Clinician-reported dissociation (Months 6-12, AE once in Week 1) was 18.5% and the “Clinician-reported increased blood pressure” value (Months 6-12, AE once in Week 1) was 9.1%. For the same compound, the Clinician-reported sedation (Months 6-12, AE once in Week 1) was 0%, the Dizziness (Months 6-12, AE once in Week 1) was 20.8% and the Nausea (Months 6-12, AE once in Week 1) was 18.2%. For the same compound, the Vertigo (Months 6-12, AE once in Week 1) was 23.8%, the Clinician-reported dissociation [2] was 33.3% and the “Clinician-reported increased blood pressure” value [2] was 20.0%. For the same compound, the Clinician-reported sedation [2] was 45.5%, the Dizziness [2] was 21.2% and the Nausea [2] was 8.3%. For the same compound, the Vertigo [2] was 38.1%, the Clinician-reported dissociation (Months 6-12, No AE in Week 1) was 4.6% and the “Clinician-reported increased blood pressure” value (Months 6-12, No AE in Week 1) was 1.7%. It also gave a Clinician-reported sedation (Months 6-12, No AE in Week 1) of 1.7%, a Dizziness (Months 6-12, No AE in Week 1) of 4.0% and a Nausea (Months 6-12, No AE in Week 1) of 4.9%. For the same compound, the Vertigo (Months 6-12, No AE in Week 1) was 1.7%, the Anxiety (Months 6-12, None in Week 1) was 2.1% and the “Feeling Drunk” value (Months 6-12, None in Week 1) was 0.2%. It also gave a Hypoesthesia (Months 6-12, None in Week 1) of 1.6%, a Lethargy (Months 6-12, None in Week 1) of 1.6% and a Vomiting (Months 6-12, None in Week 1) of 1.9%. For the same compound, the Anxiety (Months 6-12, Once in Week 1) was 0%, the “Feeling Drunk” value (Months 6-12, Once in Week 1) was 33.3% and the Hypoesthesia (Months 6-12, Once in Week 1) was 13.8%. For the same compound, the Lethargy (Months 6-12, Once in Week 1) was 0%, the Vomiting (Months 6-12, Once in Week 1) was 10.5% and the Anxiety (Months 6-12, Overall) was 2.2%. For the same compound, the “Feeling Drunk” value (Months 6-12, Overall) was 1.5%, the Hypoesthesia (Months 6-12, Overall) was 3.2% and the Lethargy (Months 6-12, Overall) was 0.2%. The Vomiting (Months 6-12, Overall) was 2.2%, the Anxiety (Months 6-12, Twice in Week 1) was 50.0% and the “Feeling Drunk” value (Months 6-12, Twice in Week 1) was 85.7%. For the same compound, the Hypoesthesia (Months 6-12, Twice in Week 1) was 40.0%, the Lethargy (Months 6-12, Twice in Week 1) was 0% and the Vomiting (Months 6-12, Twice in Week 1) was 0%. For the same compound, the Clinician-reported dissociation [3] was 8.8%, the “Clinician-reported increased blood pressure” value [3] was 2.2% and the Clinician-reported sedation [3] was 2.5%. It also gave a Dizziness [3] of 8.1%, a Nausea [3] of 6.7% and a Vertigo [3] of 5.0%. The Clinician-reported dissociation [4] was 17.1%, the “Clinician-reported increased blood pressure” value [4] was 4.4% and the Clinician-reported sedation [4] was 3.9%. For the same compound, the Dizziness [4] was 21.1%, the Nausea [4] was 14.3% and the Vertigo [4] was 12.4%.
